Measured values taken from patent publication US10688099B2, “Methods for modulating the amount of RNA transcripts” (PTC Therapeutics, Inc., priority 2013, dated 2020).

System: RNA isoforms in PNN 1-46 SMA type I patient-derived fibroblasts
Test: RNA Abundance Modulation (RNA isoform abundance, iFPM, HiSeq RNA sequencing)
Format: cell-based, human
Details: 3 μM
Experimental: Cells from a cell line of interest are cultured in conditions sufficient to yield the number of cells capable of generating enough RNA for subsequent sequencing steps. Cells from the tested cell line are contacted with a compound described herein.
To culture said cells, they are seeded, at appropriate concentrations in a volume of media in a cell culture container and incubated for 4, 5, 6, 7, 8, 9, 10, or more hours. A concentrated solution of compound in a vehicle (e.g., DMSO) is then added in sufficient volume to result in the intended final concentration of the compound, for example 100 nM, 500 nM, 1 μM, 5 μM, 10 μM, 15 μM, 20 μM, or more. The cells may also be treated with vehicle alone, as a control. A number of replicates of each concentration or control may be made (e.g., 2 replicates). The cells are then incubated at a constant temperature appropriate for cell culture of the particular cell line (e.g., 37° C.) for 6, 12, 18, 24, 48, or more hours. After incubation, the growth medium is removed and the cells are washed with the appropriate buffer (e.g., PBS). Cells are then removed from adherence to the cell culture container by treatment with a solution containing trypsin, and the trypsin subsequently quenched with the appropriate volume of buffer (e.g., DMEM-FBS). The cells are then pelleted with gentle centrifugation (e.g., ≤90×g centrifugal force) and resuspended in a buffer to lyse the cells for extraction of RNA. The cell lysates may then be frozen (e.g., at −80° C.) or, alternately, may immediately be used in a procedure to purify the RNA (e.g. by use of the RNEASY PLUS® minikit). The RNA from cell lysates is eluted in the appropriate volume of buffer (e.g., RNEASE-FREE H2O®). The resulting purified RNA may then be sequenced (e.g., using RNASeq) or analyzed using a human exon array (e.g., by GENECHIP® human exon array) to determine changes in the RNA levels in those cells treated with compound compared to those cells treated only with DMSO. The purified RNA may also be quantified by other methods known in the art.
Using the RNA data obtained from sequencing, exon array, or other methods, a statistical analysis can reveal changes in the RNA levels of compound-treated compared with control. For example, t-test p-values may be calculated for the data obtained through sequencing and exon array methods in order to compare compound-treated cells to those treated with the DMSO control. […] Analysis of the sequencing and exon array data may then also yield predictions about the cause of the aberrant amount of an RNA transcript in the cells (e.g., perturbation of RNA splicing, RNA transcription, or RNA stability). These predictions may be further confirmed by methods known in the art. For example, RT-PCR and RT-qPCR may be used to confirm the change in amount of RNA transcripts for one or more particular transcripts of interest.
Following the methods described above in Example 1, PNN 1-46 SMA type I patient-derived fibroblasts were treated with 300 nM or 3 μM Compounds 774 and 808 in 0.5% DMSO.
700,000 cells were seeded in 10 mL of medium (DMEM plus 10% FBS) in a T-75 flask. Cells were allowed to attach for at least 4 hrs, after which 50 μL of a 200× compound solution (100% DMSO) was added to each well, and the plate was incubated at 37° C. for 24 hrs.
At the end of the incubation period, the supernatant was removed and the cells where washed with PBS. TrypLE (Invitrogen) express solution was added (e.g. 1.5 mL per one T75 flask). The flasks were incubated for 3 to 5 min at 37° C. The trypsin was then quenched, e.g., by adding 10 mL DMEM-FBS.
Next, the cells were pelleted using gentle centrifugation without exceeding 90×g centrifugal force. The supernatant was removed and the cell pellet was re-suspended in 600 μL RLT buffer (the RLT buffer was supplemented with beta-mercaptoethanol according to the RNeasy protocol manual) by pipetting up and down until the pellet was completely dissolved […]

## CCc1nc(C)cn2nc(-c3cc(=O)n4cc(C5CCN(C)CC5)cc(C)c4n3)cc12 [Compound 774]
U2SURP BC006474
  amp FC (x + 1): 1.09
  ave Cpd: 1249 iFPM
U2SURP BC111692
  FC (x + 1): 1.9191
  L2FC (x + 1): 0.940
  L2abs (Cpd-DMSO): 3.18
  abs (Cpd-DMSO): 9 iFPM
  amp FC (x + 1): 1.92
  ave Cpd: 18 iFPM
U2SURP NM_001080415
  FC (x + 1): 2.2780
  L2FC (x + 1): 1.188
  L2abs (Cpd-DMSO): 7.79
  abs (Cpd-DMSO): 222 iFPM
  amp FC (x + 1): 2.28
  ave Cpd: 395 iFPM
UBAP2L AJ243668
  FC (x + 1): 0.4506
  L2FC (x + 1): −1.150
  L2abs (Cpd-DMSO): 6.40
  abs (Cpd-DMSO): 84 iFPM
  amp FC (x + 1): 2.22
  ave Cpd: 68 iFPM
UBAP2L AJ243669
  FC (x + 1): 0.2687
  L2FC (x + 1): −1.896
  L2abs (Cpd-DMSO): 6.45
  abs (Cpd-DMSO): 88 iFPM
  amp FC (x + 1): 3.72
  ave Cpd: 31 iFPM
UBAP2L AJ243670
  FC (x + 1): 3.1873
  L2FC (x + 1): 1.672
  L2abs (Cpd-DMSO): 1.13
  abs (Cpd-DMSO): 2 iFPM
  amp FC (x + 1): 3.19
  ave Cpd: 2 iFPM
UBAP2L AK124294
  FC (x + 1): 0.4670
  L2FC (x + 1): −1.099
  L2abs (Cpd-DMSO): 5.20
  abs (Cpd-DMSO): 37 iFPM
  amp FC (x + 1): 2.14
  ave Cpd: 31 iFPM
UBAP2L AK302662
  FC (x + 1): 0.2827
  L2FC (x + 1): −1.822
  L2abs (Cpd-DMSO): 8.14
  abs (Cpd-DMSO): 283 iFPM
  amp FC (x + 1): 3.54
  ave Cpd: 110 iFPM
UBAP2L AK302953
  FC (x + 1): 0.5118
  L2FC (x + 1): −0.966
  L2abs (Cpd-DMSO): 8.57
  abs (Cpd-DMSO): 381 iFPM
  amp FC (x + 1): 1.95
  ave Cpd: 399 iFPM
UBAP2L AK303533
  FC (x + 1): 0.0476
  L2FC (x + 1): −4.392
  L2abs (Cpd-DMSO): 4.32
  abs (Cpd-DMSO): 20 iFPM
  amp FC (x + 1): 20.99
  ave Cpd: 0 iFPM
UBAP2L NM_014847
  FC (x + 1): 0.3090
  L2FC (x + 1): −1.695
  L2abs (Cpd-DMSO): 10.25
  abs (Cpd-DMSO): 1219 iFPM
  amp FC (x + 1): 3.24
  ave Cpd: 544 iFPM
UBAP2L NM_001127320
  FC (x + 1): 0.4857
  L2FC (x + 1): −1.042
  L2abs (Cpd-DMSO): 10.01
  abs (Cpd-DMSO): 1030 iFPM
  amp FC (x + 1): 2.06
  ave Cpd: 972 iFPM
UBE2V1 NM_021988
  FC (x + 1): 0.9186
  L2FC (x + 1): −0.122
  L2abs (Cpd-DMSO): 2.64
  abs (Cpd-DMSO): 6 iFPM
  amp FC (x + 1): 1.09
  ave Cpd: 69 iFPM
UBE2V1 NM_022442
  FC (x + 1): 0.2858
  L2FC (x + 1): −1.807
  L2abs (Cpd-DMSO): 1.32
  abs (Cpd-DMSO): 2 iFPM
  amp FC (x + 1): 3.50
  ave Cpd: 0 iFPM
UBE2V1 NM_199144
  FC (x + 1): 9.0627
  L2FC (x + 1): 3.180
  L2abs (Cpd-DMSO): 3.01
  abs (Cpd-DMSO): 8 iFPM
  amp FC (x + 1): 9.06
  ave Cpd: 8 iFPM
UBE2V1 NM_001032288
  FC (x + 1): 1.0807
  L2FC (x + 1): 0.112
  L2abs (Cpd-DMSO): 8.47
  abs (Cpd-DMSO): 355 iFPM
  amp FC (x + 1): 1.08
  ave Cpd: 4751 iFPM
UBE2V1 NM_001257393
  FC (x + 1): 0.0796
  L2FC (x + 1): −3.651
  L2abs (Cpd-DMSO): 3.53
  abs (Cpd-DMSO): 12 iFPM
  amp FC (x + 1): 12.56
  ave Cpd: 0 iFPM
UBE2V1 NM_001257394
  FC (x + 1): 0.1697
  L2FC (x + 1): −2.559
  L2abs (Cpd-DMSO): 4.01
  abs (Cpd-DMSO): 16 iFPM
  amp FC (x + 1): 5.89
  ave Cpd: 2 iFPM
UBE2V1 NM_001257397
  FC (x + 1): 0.5713
  L2FC (x + 1): −0.808
  L2abs (Cpd-DMSO): 3.18
  abs (Cpd-DMSO): 9 iFPM
  amp FC (x + 1): 1.75
  ave Cpd: 11 iFPM
UBE2V1 NM_001257399
  FC (x + 1): 1.1595
  L2FC (x + 1): 0.214
  L2abs (Cpd-DMSO): 4.66
  abs (Cpd-DMSO): 25 iFPM
  amp FC (x + 1): 1.16
  ave Cpd: 182 iFPM
UBE2V1 NR_047554
  FC (x + 1): 0.0730
  L2FC (x + 1): −3.777
  L2abs (Cpd-DMSO): 8.39
  abs (Cpd-DMSO): 337 iFPM
  amp FC (x + 1): 13.71
  ave Cpd: 25 iFPM
UBE2V1 NR_047555
  FC (x + 1): 0.9261
  L2FC (x + 1): −0.111
  L2abs (Cpd-DMSO): −1.09
  abs (Cpd-DMSO): 0 iFPM
  amp FC (x + 1): 1.08
  ave Cpd: 5 iFPM
UBE2V1 NR_047556
  FC (x + 1): 0.5268
  L2FC (x + 1): −0.925
  L2abs (Cpd-DMSO): 3.88
  abs (Cpd-DMSO): 15 iFPM
  amp FC (x + 1): 1.90
  ave Cpd: 15 iFPM
UCHL5 AK225794
  FC (x + 1): 0.7328
  L2FC (x + 1): −0.448
  L2abs (Cpd-DMSO): 3.79
  abs (Cpd-DMSO): 14 iFPM
  amp FC (x + 1): 1.36
  ave Cpd: 37 iFPM
UCHL5 AK316064
  FC (x + 1): 1.3941
  L2FC (x + 1): 0.479
  L2abs (Cpd-DMSO): 4.93
  abs (Cpd-DMSO): 30 iFPM
  ave Cpd: 106 iFPM
UCHL5 BC015381
  FC (x + 1): 1.2220
  L2FC (x + 1): 0.289
  L2abs (Cpd-DMSO): 1.34
  abs (Cpd-DMSO): 3 iFPM
  ave Cpd: 13 iFPM
